According to patent US20240025849A1 (MAX DELBRÜCK-CENTRUM FÜR MOLEKULARE MEDIZIN IN DER …, priority 2020, published 2024):
Entries after “also recorded” stand apart in the source; their conditions may differ.

Columns and labels:
[1] = tested on: primary cultured neonatal astrocytes; assay: AlamarBlue assay in astrocytes; assay type: cell-based; conditions: 2.5 μM C1, 48 hours, unstimulated
Procedure: Primary cultured neonatal astrocytes. The preparation of primary cultured neonatal astrocytes followed the preparation of the primary cultured neonatal microglia, described above. After the third shake off, the remaining astrocytes were trypsinated, washed with PBS and seeded into a 96 well plate (10 000 cells/well, 200 μL medium per well).
AlamarBlue assay. Cells were seeded according to the protocols described above, after compounds and stimuli were added, the cells were washed once with HBSS (37° C.) and 100 μl of a 1:10 AlamarBlue (Thermo Fisher Scientific) dilution in plain medium was added. The conversion of resazurin to resorufin was measured by absorbance (absorbance wavelength of 570 nm and a reference wavelength of 600 nm) after 3 hours.
The inventors evaluated the metabolic activity, proliferation and cell death of primary cultured neonatal microglia, primary cultured neonatal astrocytes and the oligodendrocyte cell line OLN-93 under physiological conditions. All cells were treated with 2.5 μM C1 in DMSO or the corresponding DMSO concentration (125×10-5 v/v) for 48 hours without any additional stimulation followed by either an AlamarBlue assay to measure the metabolic activity, or an propidium iodide based proliferation and cell death assay. The data of the AlamarBlue assay and proliferation assay were normalised to the plain medium control. […]

[2] = tested on: C57Bl/6 mice after 30 minutes MCAO; assay: Middle cerebral artery occlusion (MCAO) model of mild ischemic injury; assay type: in vivo, mouse; conditions: 5 mg/kg i.p. daily
Procedure: Animals and Group Allocation for middle cerebral artery occlusion (MCAO) study. C57BL/6 (13 weeks old, Charles River, Germany) male mice were handled according to governmental (LaGeSo-G0249/15) and internal (MDC/Charitd) rules and regulations, having free access to food and water. A total of 24 male mice were analysed after a 30 minutes of left-sided MCAO. Animals were randomly attributed to treatment paradigms, and experimenters were blinded at all stages of interventions. The mice were injected intraperitoneally (i.p.) every day for the 7 days, subsequently of the behavioral tests, with the compound (n=11) or with the vehicle ([…], n=13).
Induction of cerebral ischemia. Mice were anesthetized for induction with 3-4% isoflurane and maintained in 1.5% isoflurane in 70% N2O and 30% O2 using a vaporizer. MCAO was essentially performed as described elsewhere (Endres et al., 2000). In brief, brain ischemia was induced with a silicone rubber-coated monofilament 7-0, diameter 0.06-0.09 mm, length 20 mm; diameter with coating […]; coating length 9-10 mm. The filament was introduced into the internal carotid artery up to the anterior cerebral artery. Thereby, the middle cerebral artery and anterior choroidal arteries were occluded. The filament was removed after 30 min to allow reperfusion.
MRI was performed using a 7 Tesla rodent scanner (Pharmascan 70/16, Bruker BioSpin, Bruker, Billerica, USA) with a 16 cm horizontal bore magnet and a 9 cm (inner diameter) shielded gradient with an H-resonance-frequency of 300 MHz and a maximum gradient strength of 300 mT/m. For imaging a 20 mm-1H-RF quadrature-volume resonator with an inner diameter of 20 mm was used. Data acquisition and image processing were carried out with the Bruker software Paravision 5.1. During the examinations mice were placed on a heated circulating water blanket to ensure constant body temperature of 37° C. Anaesthesia was induced with 2.5% and maintained with 2.0-1.5% isoflurane (Forene, Abbot, Wiesbaden, Germany) delivered in an O2/N2 mixture (0.3/0.7 L/min) via a facemask under constant ventilation monitoring (Small Animal Monitoring & Gating System, SA Instruments, New York, USA). For imaging the mouse brain a T2-weighted 2D turbo spin-echo sequence was used (imaging parameters TR/TE=4200/36 ms, rare factor 8, 4 averages, 32 axial slices with a slice thickness of 0.5 mm, field of view of 2.56×2.56 cm, matrix size 256×256).
Calculation of lesion volume was carried out with the program Analyze 10.0 (AnalyzeDirect, Inc., Overland Park, USA). The hyperintense ischemic areas in axial T2-weighted images were assigned with a region of interest tool. This enables threshold based segmentation by connecting all pixels within a specified threshold range about the selected seed pixel and results in 3D object map of the whole stroke region. Further the total volume of the whole object map was automatically calculated.
The Rotarod test was performed to access motor coordination using a treadmill with a diameter of 3 cm (TSE Systems, Chesterfield, USA). This test was performed with accelerating velocity (4-40 rpm) and maximal velocity was achieved after 300 s. The time until the animals dropped was measured. Animals were trained on day 2 and 3 before MCAO and baseline was taken on the day before MCAO. Tests were always performed four times and means were used for statistical analysis.
A vertical pole (80 cm high with rough surface) was used for this test, to analyse extrapyramidal motor locomotion. Mice were placed head upward on the top of the pole. The time taken to orientate the body completely downwards, making a 180° turn (t turn), and to reach the floor with all four paws (t down) were recorded. If the animal was unsuccessful for either task, it was scored the maximum time that any other animal from the same experimental group took to perform the task. Animals were trained on day 2 and 3 before MCAO and baseline was taken on the day before MCAO. […]

SMILES: COc1ccc(NC(=O)C(NC(=O)C2CCCN2C(=O)OCc2ccccc2)c2ccc(OC)cc2)cc1 (stereo not shown) [C1]
- metabolic activity of astrocytes [1]: no influence; also recorded: not affected
- pole test, time descending the pole ([2]; day 2 after MCAO): 6.592 s
- pole test, time to turn 180° ([2]; day 2 after MCAO): 1.175 s
- accelerated Rotarod test ([2]; day 2 and 5 after MCAO, vs vehicle): no differences; also recorded: No significant difference
- volume of the ischemic lesion (MRI) ([2]; day 3 after MCAO, vs vehicle): did not cause a significant difference; also recorded: No significant difference
- pole test, difference to control group ([2]; day 5 after MCAO): No differences were observed
- corner test, turns to the left in 10 turns ([2]; day 6 after MCAO): 7.00
